From patent US8202879B2, “Quinazoline derivatives having tyrosine kinase inhibitory activity” (Shionogi & Co., Ltd., priority 2005, dated 2012)
Counter-ions that a name gives are not always drawn. Like-named read-outs stand apart in the source and are kept apart here.

How the values were obtained:
EGFR = target: T1, EGFR (Homo sapiens, UniProt P00533); assay: Enzyme inhibitory activity on EGFR (time resolution fluorescence, biotinylated poly-Glu-Tyr substrate); assay type: biochemical
T1 construct: purchased Carna Biosciences, Inc; host or cells: insect cell expression system
Procedure: (§1) Enzyme Inhibitory Activity of Test Compound on EGFR and HER2
(§2) EGFR and HER2 purified from an insect cell expression system, and a biotinylated substrate (synthetic peptide of glutamic acid:tyrosine=4:1) were added to a 384-well plate with ATP added thereto, and an enzyme reaction was performed at room temperature. After completion of the enzyme reaction, an anti-phosphorylated tyrosine antibody labeled with europium and streptavidin labeled with alphycocyanine were added, and a phosphorylated tyrosine residue was quantified by a time resolution fluorescence method.
(§3) A test compound was adjusted to 10 mM using DMSO.
(§4) Further, using 10% DMSO solution, a 1 mM solution was prepared, and this was regarded as a maximum concentration point.
(§5) As a dilution series, a 4-fold dilution series was prepared to a 10 stage.
(§6) As a buffer, TBS containing 10 mM MgCl2, 5 mM MnCl2, 0.2 mM Na3VO4, and 0.1% BSA was used.
(§7) As EGFR and HER2 enzymes, those purified from an insect cell expression system were purchased from Carna Biosciences, Inc.
An EGFR enzyme solution was adjusted to 250 ng/ml using a buffer.
(§8) As a substrate, biotinylated poly-Glu-Tyr (4:1, manufactured by CISbio) was used. A concentration was adjusted to 3.125 μg/ml using the above buffer.
An ATP concentration on study of the EGFR enzyme was adjusted to 125 μM using the buffer.
(§9) For preparing a detection reagent, TBS containing 30 mM EDTA, 0.8M KF and 0.1% BSA was used.
(§10) An anti-phosphorylated tyrosine antibody labeled with europium, PT-66K (CISbio) was adjusted to 195 ng/ml, and streptavidin labeled with alphycocyanine, SA-XL (CISbio) was adjusted to 5 μg/ml.
(§11) As an assay plate, a 384-well plate was used. Per one well, 1.1 μl of a test compound, 4 μl of a substrate solution, and 4 μl of an enzyme solution were added, and 2 μl of an ATP solution was added to initiate an enzyme reaction. The enzyme reaction was performed at room temperature for 60 minutes, and 10 μl of a detection reagent was added to complete the reaction. One hour after completion of the reaction, time resolution fluorescent measurement was performed.

HER2 = target: T2, HER2 (Homo sapiens, UniProt P04626); assay: Enzyme inhibitory activity on HER2 (time resolution fluorescence, biotinylated poly-Glu-Tyr substrate); assay type: biochemical
T2 construct: purchased Carna Biosciences, Inc; host or cells: insect cell expression system
Procedure: as §1, §2, §3, §4, §5, §6, §7
HER2 kinase was adjusted to 1000 ng/ml using a buffer.
as §8
An ATP concentration on study of the HER2 enzyme was adjusted to 290 μM.
as §9, §10, §11

BT-474 = assay: In vitro cell proliferation inhibition, WST assay; assay type: cell-based, human; settings: BT-474 cells, cultured for 3 days, read-out: BT-474 (nM) proliferation inhibitory activity (IC50 value)
Procedure: Test of In Vitro Cell Proliferation Inhibition of Test Compound
As a human-derived cancer cell strain, BT-474 was used. Cells were all cultured in a 37° C., 5% CO2 incubator in a medium in which 10% bovine fetal serum (ICN) and 50 units ml penicillin/60 μg/ml streptomycin solution (GIBCO) were added to Dulbecco's Modified Essential Medium (DMEM, Nacalai Tesque, Inc).

[1] = EGFR purified from insect cell expression system, ATP solution 125 μM, room temperature, 60 minutes
[2] = HER2 purified from insect cell expression system, ATP solution 290 μM, room temperature, 60 minutes
[3] = enzyme reaction at room temperature for 60 minutes

T1 sequence (P00533 25-1210): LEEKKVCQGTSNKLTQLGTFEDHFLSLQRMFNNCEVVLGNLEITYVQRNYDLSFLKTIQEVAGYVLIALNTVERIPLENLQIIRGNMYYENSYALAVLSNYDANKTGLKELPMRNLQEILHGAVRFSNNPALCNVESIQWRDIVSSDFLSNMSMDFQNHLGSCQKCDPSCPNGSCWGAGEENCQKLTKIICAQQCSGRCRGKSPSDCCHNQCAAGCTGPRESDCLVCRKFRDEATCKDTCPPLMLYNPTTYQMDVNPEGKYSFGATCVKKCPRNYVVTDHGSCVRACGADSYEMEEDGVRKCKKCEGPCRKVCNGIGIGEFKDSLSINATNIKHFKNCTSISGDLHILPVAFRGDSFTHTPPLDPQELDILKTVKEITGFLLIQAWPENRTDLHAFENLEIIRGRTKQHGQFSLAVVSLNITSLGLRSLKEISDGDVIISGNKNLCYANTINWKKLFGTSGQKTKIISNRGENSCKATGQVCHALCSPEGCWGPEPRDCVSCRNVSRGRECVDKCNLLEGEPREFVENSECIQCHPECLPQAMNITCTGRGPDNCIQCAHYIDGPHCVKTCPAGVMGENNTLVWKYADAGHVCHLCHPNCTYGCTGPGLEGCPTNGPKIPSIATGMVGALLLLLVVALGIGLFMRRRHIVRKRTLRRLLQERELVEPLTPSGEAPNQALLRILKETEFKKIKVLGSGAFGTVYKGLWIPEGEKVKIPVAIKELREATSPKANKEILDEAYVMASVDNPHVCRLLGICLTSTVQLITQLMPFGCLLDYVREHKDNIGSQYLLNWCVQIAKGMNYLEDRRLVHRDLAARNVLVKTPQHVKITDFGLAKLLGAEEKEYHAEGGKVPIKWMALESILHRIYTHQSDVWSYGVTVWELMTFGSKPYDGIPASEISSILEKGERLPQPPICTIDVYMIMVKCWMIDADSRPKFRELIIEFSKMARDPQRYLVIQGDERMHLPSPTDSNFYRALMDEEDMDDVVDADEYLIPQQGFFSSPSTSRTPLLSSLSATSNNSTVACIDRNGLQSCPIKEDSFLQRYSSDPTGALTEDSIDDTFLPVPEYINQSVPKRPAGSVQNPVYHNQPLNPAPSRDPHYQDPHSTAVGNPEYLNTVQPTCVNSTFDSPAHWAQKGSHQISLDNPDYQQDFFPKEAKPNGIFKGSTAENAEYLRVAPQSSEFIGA
T2 sequence (P04626 23-1255): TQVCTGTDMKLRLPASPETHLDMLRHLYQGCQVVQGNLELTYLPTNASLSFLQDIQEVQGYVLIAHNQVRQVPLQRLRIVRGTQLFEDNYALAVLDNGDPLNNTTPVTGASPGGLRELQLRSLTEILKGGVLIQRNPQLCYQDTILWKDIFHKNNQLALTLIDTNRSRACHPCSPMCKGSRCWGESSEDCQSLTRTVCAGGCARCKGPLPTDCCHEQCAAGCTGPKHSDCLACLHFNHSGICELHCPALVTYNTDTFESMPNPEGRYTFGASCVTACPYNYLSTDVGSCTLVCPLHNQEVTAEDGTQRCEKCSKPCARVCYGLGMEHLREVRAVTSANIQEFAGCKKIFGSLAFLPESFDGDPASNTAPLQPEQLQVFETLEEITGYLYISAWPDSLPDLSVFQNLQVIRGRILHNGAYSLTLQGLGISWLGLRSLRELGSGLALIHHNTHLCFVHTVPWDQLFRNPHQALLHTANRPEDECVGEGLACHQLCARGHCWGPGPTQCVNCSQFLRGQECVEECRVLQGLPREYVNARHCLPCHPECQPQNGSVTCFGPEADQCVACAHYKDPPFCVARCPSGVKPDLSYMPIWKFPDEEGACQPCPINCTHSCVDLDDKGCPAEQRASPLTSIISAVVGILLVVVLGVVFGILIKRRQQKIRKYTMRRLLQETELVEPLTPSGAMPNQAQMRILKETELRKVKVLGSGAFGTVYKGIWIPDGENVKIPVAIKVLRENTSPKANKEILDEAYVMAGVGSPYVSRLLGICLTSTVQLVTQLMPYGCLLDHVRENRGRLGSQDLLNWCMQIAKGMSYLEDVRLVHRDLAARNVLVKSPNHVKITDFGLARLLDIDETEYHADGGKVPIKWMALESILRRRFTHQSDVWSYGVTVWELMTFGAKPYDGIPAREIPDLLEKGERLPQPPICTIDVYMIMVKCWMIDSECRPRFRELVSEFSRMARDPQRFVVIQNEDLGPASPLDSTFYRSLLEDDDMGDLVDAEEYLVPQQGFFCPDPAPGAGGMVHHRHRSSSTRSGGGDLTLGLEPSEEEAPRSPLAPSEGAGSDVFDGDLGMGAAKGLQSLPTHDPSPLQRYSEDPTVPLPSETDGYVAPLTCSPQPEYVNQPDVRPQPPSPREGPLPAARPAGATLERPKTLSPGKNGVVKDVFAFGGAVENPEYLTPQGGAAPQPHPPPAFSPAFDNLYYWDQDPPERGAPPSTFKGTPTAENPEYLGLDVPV

| Compound | IC50 (EGFR; [1]) | IC50 (HER2; [2]) | IC50 (BT-474; Homo sapiens, BT-474, 72 h) | IC50 (EGFR; [3]) | IC50 (HER2; [3]) | IC50 (BT-474) |
| --- | --- | --- | --- | --- | --- | --- |
| Fc1cccc(COc2ccc(Nc3ncnc4ccc(/C=N/OCCN5CCCC5)cc34)cc2Cl)c1 [Compound V-6] | 6.5 nM | 3.6 nM | 110 nM |  |  |  |
| Fc1cccc(COc2ccc(Nc3ncnc4ccc(/C=N/OCCN5CCOCC5)cc34)cc2Cl)c1 [Compound V-7] | 36 nM | 76 nM | 134 nM |  |  |  |
| C=CC(=O)N1CCN(CCON=Cc2ccc3ncnc(Nc4ccc(OCc5cccc(F)c5)c(Cl)c4)c3c2)CC1 [Compound V-43, 4-(3-chloro-4-(3-fluorobenzyloxy)phenylamino)-6-(2-(4-acryloyl-1-piperazin-1-yl)ethoxyimino)methylquinazoline] | 186 nM | 151 nM | 71 nM |  |  |  |
| Fc1cccc(COc2ccc(Nc3ncnc4ccc(C=NN5CCCC5)cc34)cc2Cl)c1 [IX-1, 4-(3-chloro-4-(3-fluorobenzyloxy)phenylamino)-6-(pyrrolidin-1-yliminomethyl)quinazoline] |  |  |  | 138 nM | 203 nM |  |
| Fc1cccc(COc2ccc(Nc3ncnc4ccc(/C=N/N5CCCCC5)cc34)cc2Cl)c1 [IX-4] |  |  |  | 193 nM | 334 nM |  |
| COC[C@@H]1CCCN1/N=C/c1ccc2ncnc(Nc3ccc(OCc4cccc(F)c4)c(Cl)c3)c2c1 [IX-6] |  |  |  | 344 nM | 326 nM |  |
| CN(/N=C/c1ccc2ncnc(Nc3ccc(OCc4cccc(F)c4)c(Cl)c3)c2c1)c1ccccc1 [IX-8] |  |  |  | 426 nM | 549 nM |  |
| CC/C(=N\OCCN1CCOCC1)c1ccc2ncnc(Nc3ccc(OCc4cccc(F)c4)c(Cl)c3)c2c1 [VIII-7] | 103 nM | 348 nM | 63 nM |  |  |  |
| CC#CC(=NOCCN1CCOCC1)c1ccc2ncnc(Nc3ccc(OCc4cccc(F)c4)c(Cl)c3)c2c1 [VIII-10] | 409 nM | 484 nM | 27 nM |  |  |  |
| O=S1(=O)CCN(CCON=C(c2ccccc2)c2ccc3ncnc(Nc4ccc(OCc5cccc(F)c5)c(Cl)c4)c3c2)CC1 [VIII-12] | 209 nM | 227 nM | 69 nM |  |  |  |
| Fc1cccc(COc2ccc(Nc3ncnc4ccc(C(=NOCCN5CCOCC5)c5ccccc5)cc34)cc2Cl)c1 [VIII-13] | 300 nM | 888 nM | 64 nM |  |  |  |
| CC/C(=N\OCCNCCS(C)(=O)=O)c1ccc2ncnc(Nc3ccc(OCc4cccc(F)c4)c(Cl)c3)c2c1 [VIII-19] | 89 nM | 115 nM |  |  |  |  |
| CC/C(=N\OCCNC)c1ccc2ncnc(Nc3ccc(OCc4cccc(F)c4)c(Cl)c3)c2c1 [VIII-20] | 29 nM | 31 nM | 37 nM |  |  |  |
| CC#C/C(=N\OCCNC)c1ccc2ncnc(Nc3ccc(OCc4cccc(F)c4)c(Cl)c3)c2c1 [VIII-27] | 33 nM | 43 nM |  |  |  | 13 nM |
| CC#C/C(=N\OCCNC1CCCCC1)c1ccc2ncnc(Nc3ccc(OCc4cccc(F)c4)c(Cl)c3)c2c1 [VIII-28] | 162 nM | 167 nM |  |  |  | 72 nM |
| CS(=O)(=O)CCNCCON=C(c1ccccc1)c1ccc2ncnc(Nc3ccc(OCc4cccc(F)c4)c(Cl)c3)c2c1 [VIII-29] | 102 nM | 513 nM | 77 nM |  |  |  |
| CC#CC(=NOC[C@@H]1CNCCO1)c1ccc2ncnc(Nc3ccc(OCc4cccc(F)c4)c(Cl)c3)c2c1 [VIII-32, 4-(3-chloro-4-(3-fluorobenzyloxy)phenylamino)-6-(1-((S)-morpholin-2-ylmethoxyimino)-2-butyn-1-yl)quinazoline dihydrochloride] | 50 nM | 46 nM | 32 nM |  |  |  |
| CC#CC(=NOCCNCC)c1ccc2ncnc(Nc3ccc(OCc4cccc(F)c4)c(Cl)c3)c2c1 [VIII-35] | 11 nM | 25 nM | 24 nM |  |  |  |

More lines, now with the values ahead:

| IC50 (EGFR; [1]) | IC50 (HER2; [2]) | IC50 (BT-474; Homo sapiens, BT-474, 72 h) | IC50 (EGFR; [3]) | IC50 (HER2; [3]) | IC50 (BT-474) | Compound |
| --- | --- | --- | --- | --- | --- | --- |
| 9.3 nM | 19.2 nM |  |  |  | 9 nM | CC#CC(=NOCC(C)N)c1ccc2ncnc(Nc3ccc(OCc4cccc(F)c4)c(Cl)c3)c2c1 (stereo not shown) [VIII-40] |
| 12 nM | 15 nM |  |  |  | 14 nM | CC#C/C(=N\OC[C@@H](N)CO)c1ccc2ncnc(Nc3ccc(OCc4cccc(F)c4)c(Cl)c3)c2c1 [VIII-41] |
| 10 nM | 11 nM |  |  |  | 24 nM | CC#C/C(=N\OCCN)c1ccc2ncnc(Nc3ccc(OCc4cccc(F)c4)c(Cl)c3)c2c1 [VIII-42] |
| 26 nM | 6.3 nM |  |  |  | 28 nM | CC#C/C(=N\OCCNC(C)COC)c1ccc2ncnc(Nc3ccc(OCc4cccc(F)c4)c(Cl)c3)c2c1 (stereo not shown) [VIII-44] |
| 58 nM | 152 nM |  |  |  | 13 nM | CC#C/C(=N\OCCNCCS(C)(=O)=O)c1ccc2ncnc(Nc3ccc(OCc4cccc(F)c4)c(Cl)c3)c2c1 [VIII-45] |
| 82 nM | 104 nM | 12 nM |  |  |  | CC#C/C(=N\OCCNC1CC1)c1ccc2ncnc(Nc3ccc(OCc4cccc(F)c4)c(Cl)c3)c2c1 [VIII-46] |
| 12 nM | 23 nM |  |  |  | 4 nM | CC#C/C(=N\OCCNCCNC(C)=O)c1ccc2ncnc(Nc3ccc(OCc4cccc(F)c4)c(Cl)c3)c2c1 [VIII-47] |
| 44 nM | 15 nM |  |  |  | 28 nM | CC#C/C(=N\OCCNC[C@H]1CCCO1)c1ccc2ncnc(Nc3ccc(OCc4cccc(F)c4)c(Cl)c3)c2c1 [VIII-48] |
| 28 nM | 31 nM |  |  |  | 28 nM | CC#C/C(=N\OCCNC[C@@H]1CCCO1)c1ccc2ncnc(Nc3ccc(OCc4cccc(F)c4)c(Cl)c3)c2c1 [VIII-49] |
| 19 nM | 15 nM | 27 nM |  |  |  | CC#C/C(=N\OCCNCCCN1CCCC1=O)c1ccc2ncnc(Nc3ccc(OCc4cccc(F)c4)c(Cl)c3)c2c1 [VIII-50] |
| 45 nM | 64 nM | 9 nM |  |  |  | CC#C/C(=N\OCCNCCNS(C)(=O)=O)c1ccc2ncnc(Nc3ccc(OCc4cccc(F)c4)c(Cl)c3)c2c1 [VIII-51] |
| 19 nM | 28 nM |  |  |  | 9 nM | CC#C/C(=N\OCCNC[C@H]1CCC(=O)N1)c1ccc2ncnc(Nc3ccc(OCc4cccc(F)c4)c(Cl)c3)c2c1 [VIII-52] |
| 79 nM | 80 nM | 12 nM |  |  |  | CC#C/C(=N\OCCNCCOC(N)=O)c1ccc2ncnc(Nc3ccc(OCc4cccc(F)c4)c(Cl)c3)c2c1 [VIII-53] |
| 19 nM | 68 nM | 25 nM |  |  |  | CC#C/C(=N\OCCNC1CCOCC1)c1ccc2ncnc(Nc3ccc(OCc4cccc(F)c4)c(Cl)c3)c2c1 [VIII-55] |
| 7.9 nM | 13.8 nM |  |  |  | 14 nM | CC#C/C(=N\OC[C@@H](COC)NC)c1ccc2ncnc(Nc3ccc(OCc4cccc(F)c4)c(Cl)c3)c2c1 [VIII-56] |
| 301 nM | 303 nM |  |  |  | 15 nM | CC#C/C(=N\OCCNCC(F)(F)F)c1ccc2ncnc(Nc3ccc(OCc4cccc(F)c4)c(Cl)c3)c2c1 [VIII-57] |
| 207 nM | 236 nM | 37 nM |  |  |  | CC#CC(=NOCCNC(=NC#N)NC)c1ccc2ncnc(Nc3ccc(OCc4cccc(F)c4)c(Cl)c3)c2c1 [VIII-58] |
| 115 nM | 278 nM |  |  |  | 11 nM | CC#C/C(=N\OCCNC[C@@H]1COC(=O)N1)c1ccc2ncnc(Nc3ccc(OCc4cccc(F)c4)c(Cl)c3)c2c1 [VIII-59] |
| 54 nM | 30 nM |  |  |  | 14 nM | CC#C/C(=N\OCCNC1CCN(S(C)(=O)=O)CC1)c1ccc2ncnc(Nc3ccc(OCc4cccc(F)c4)c(Cl)c3)c2c1 [VIII-60] |
| 30 nM | 24 nM |  |  |  | 11 nM | CC#C/C(=N\OCCNC1CCN(C(C)=O)CC1)c1ccc2ncnc(Nc3ccc(OCc4cccc(F)c4)c(Cl)c3)c2c1 [VIII-61] |
| 52 nM |  | 22 nM |  |  |  | CC#C/C(=N\OCCN(C)CCOC)c1ccc2ncnc(Nc3ccc(OCc4cccc(F)c4)c(Cl)c3)c2c1 [VIII-64] |
|  |  |  |  |  | 8 nM | CC#C/C(=N\OC[C@@H]1C[C@H](O)CN1)c1ccc2ncnc(Nc3ccc4c(cnn4Cc4cccc(F)c4)c3)c2c1 [VIII-200] |
